The text below walks through data of patent US20240366739A1, “MEDICAMENT FOR TREATMENT AND/OR PREVENTION OF CANCER” (TORAY INDUSTRIES, INC., priority 2021, published 2024).

The test system of this assay is mouse lymphoma cell line EG7 (OVA-expressing cancer cells) subcutaneously transplanted. In words: in vivo antitumor effect in cancer-bearing mice (tumor volume measured with calipers). The settings on record: Example 6; C57BL/6NCR mice with EG7 tumors; particle 0.5 mg s.c. once a week x2 from day 7; Poly(I:C) 50 μg into tumors twice a week x4; mixture given s.c.

On to Poly(I:C), for which the “tumor growth / regression (tumor volume)” value was “not changed compared to negative controls”.
